ChEMBL document CHEMBL1145712, “Two new lignans with activity against influenza virus from the medicinal plant Rhinacanthus nasutus” (J Nat Prod, 1997)
≈ marks a conversion by molar mass, not a printed value.

Assays:
[1] = tested on: Influenza A virus; assay: Antiviral activity against influenza A virus NWS33 in MDCK cells assessed as inhibition of viral cytopathic effect by neutral red assay; assay type: functional, organism-based
[2] = Selectivity index, ratio of IC50 for MDCK cells to EC50 for influenza A virus NWS33; assay type: toxicity, cell-based; details: dog, read-out: Ratio IC50/EC50
[3] = tested on: MDCK; assay: Cytotoxicity against MDCK cells by neutral red assay; assay type: cell-based; details: Canis lupus familiaris
[4] = tested on: Influenza A virus; assay: Antiviral activity against influenza A virus NJH1N1 in MDCK cells by hemadsorption-inhibition assay; assay type: functional, organism-based
[5] = Selectivity index, ratio of IC50 for MDCK cells to EC50 for influenza A virus NJH1N1; assay type: toxicity, cell-based; details: dog, read-out: Ratio IC50/EC50
[6] = tested on: Vero; assay: Cytotoxicity against african green monkey Vero cells by MTT assay; assay type: cell-based; details: Chlorocebus sabaeus
[7] = tested on: Human alphaherpesvirus 2; assay: Antiviral activity against HSV2 MS in african green monkey Vero cells by viral cytopathic effect assay; assay type: functional, organism-based; details: Human alphaherpesvirus 2, MS
[8] = Selectivity index, ratio of IC50 for african green monkey Vero cells to EC50 for HSV2 MS

Compound	EC50 [1] [µg/mL]	selectivity ratio [2]	IC50 [3] [µg/mL]	EC50 [4] [µg/mL]	selectivity ratio [5]	IC50 [6] [µg/mL]	EC50 [7] [µg/mL]	Ratio IC50/EC50 [8]
NC(=O)c1ncn([C@@H]2O[C@H](CO)[C@@H](O)[C@H]2O)n1 [RIBAVIRIN]	3.7 (≈ 15.2 µM)	> 59	> 200	–	–	–	–	–
NC12CC3CC(CC(C3)C1)C2 [AMANTADINE]	–	–	56 (≈ 370 µM)	0.054 (≈ 0.357 µM)	1000	–	–	–
COC(=O)/C(=C/c1ccc2c(c1)OCO2)C(Cc1cc(OC)c2c(c1)OCO2)C(=O)OC (stereo unspecified) [RHINACANTHIN E]	7.4 (≈ 16.7 µM)	15	44 (≈ 99.5 µM)	1.7 (≈ 3.84 µM)	26	17 (≈ 38.4 µM)	–	–
Nc1nc2c(ncn2COCCO)c(=O)[nH]1 [ACYCLOVIR]	–	–	–	–	–	> 100	1.5 (≈ 6.66 µM)	>60
COC(=O)C(Cc1ccc2c(c1)OCO2)C(Cc1cc(OC)c2c(c1)OCO2)C(=O)OC (stereo unspecified) [RHINACANTHIN F]	3.1 (≈ 6.98 µM)	6.8	17 (≈ 38.3 µM)	< 0.94	> 18	4.4 (≈ 9.9 µM)	–	–
